Results published in publication PMC9822194, “Chemoselective Synthesis of Mannich Adducts from 1,4-Naphthoquinones and Profile as Autophagic Inducers in Oral Squamous Cell Carcinoma” (Molecules, 2022).
Read-outs that look alike come from different tables or passages of the source.

Key:
SCC-9 (OSCC cells) = test: MTT cell viability assay (cytotoxicity), SCC9; assay type: cell-based, Human; settings: for IC50: Homo sapiens, SCC-9, 48 h
Experimental: (§1) Cells and reagents. Human SCC-4, SCC-9 and SCC-25 cells, derived from a human oral tongue SCC were obtained from the ATCC (CRL-1624; CRL-1629 and CRL-1628, respectively) and maintained at 1:1 DMEM/F12 (Dulbecco’s modified Eagle medium and Ham’s F12 medium; Gibco, Thermo Fisher, Waltham, MA, USA) supplemented with 10% (v/v) FBS (fetal bovine serum; Invitrogen, Thermo Fisher, Waltham, MA, USA) and 400 ng/mL hydrocortisone (Sigma-Aldrich Co., St. Louis, MO, USA). Primary normal human gingival fibroblasts were obtained from the ATCC (PCS-201-018), maintained in DMEM supplemented with 10% (v/v) FBS, and used in a maximum of 6 passages. Cells were grown in a humidified environment containing 5% CO2 at 37 °C. […] Carboplatin in water (Fauldcarbo®; Libbs Farmacêutica, São Paulo, SP, Brazil) was used as a standard anticancer compound.
(§2) Cell viability assay (cytotoxicity) and stability assay. To assess cell viability, cells were grown in triplicate in 96-well plates (5 × 10^3 cells/well) until confluence when treated with the different compounds as in Machado et al.. Briefly, DMSO in the same concentrations was used as a 100% cell viability control. After 48 h, cells were incubated with 5 mg/mL MTT reagent (3-(4,5-dimethyl-2-thiazolyl)-2,5-diphenyl-2H-tetrazolium bromide) (Sigma-Aldrich Co., St. Louis, MO, USA) for 3.5 h. Formazan crystals were dissolved in MTT solvent (DMSO/methanol 1:1 v/v) and the absorbance at 560 nm was evaluated using an EPOCH microplate spectrophotometer (BioTek Instruments, Winooski, VT, USA) with background absorbance at 670 nm subtracted. Each of the eighteen compounds was tested at six or seven different concentrations, ranging from 0.3 µM to 200 µM in cancer cell lines (SCC-4, SCC-9 and SCC-25) and 0.4 µM to 300 µM in normal primary human gingival fibroblast.
(§3) Statistical analysis, IC50 calculation. IC50 values for MTT assays were obtained by non-linear regression using the GraphPad Prism 5.0 software (GraphPad, San Diego, CA, USA) from at least three independent experiments. Data are presented as means ± SD. A dose-response (inhibitor) vs response curve using the least squares method was used to determine the IC50, SD and R2 of the data. The selectivity index was calculated as S.I. = IC50 of the compound in normal oral fibroblast cells/IC50 of the same compound for each oral cancer cell line (SCC-4, SCC-9 and SCC-25) and the mean was calculated when indicated.

[1] = tested on: normal human gingival fibroblasts; test: MTT cell viability assay, normal fibroblasts; assay type: cell-based; settings: Homo sapiens, Fibroblast, 48 h, read-out: Primary Gengival Fibroblast IC50
Experimental: as §1, §2, §3

SCC-25 cells = test: MTT cell viability assay, SCC25; assay type: cell-based, Human; settings: Homo sapiens, SCC-25, 48 h, read-out: SCC25 IC50
Experimental: as §1, §2, §3

SCC-4 cells = test: MTT cell viability assay, SCC4; assay type: cell-based, Human; settings: Homo sapiens, SCC-4, 48 h, read-out: SCC4 IC50
Experimental: as §1, §2, §3

[2] = tested on: OSCC cell lines (SCC 4, SCC-9 and SCC-25); test: MTT assay, mean over three OSCC cell lines and average selectivity index; assay type: cell-based, Human
Experimental: as §2, §3

SCC9 cells = test: MTT assay with cell death inhibitors (ZVAD, necrostatin-1, 3-MA); assay type: cell-based, Human; settings: SCC9, 3-MA 5000 µM
Experimental: as §2, with “After 48 h, cells were incubated with 5 mg/mL MTT reagent (3-(4,5-dimethyl-2-thiazolyl)-2,5-diphenyl-2H-tetrazolium bromide) (Sigma-Aldrich Co., St.” left out

## CC(C)=CC[C@@H](O)C1=CC(=O)c2c(O)ccc(O)c2C1=O [Shikonin, reference compound]
SCC-9 (OSCC cells); read-out: SCC9 IC50
  IC50: 1.81 µM
SCC-9 (OSCC cells); read-out: SCC9—Oral Cancer IC50
  IC50: 1.8 µM
SCC-9 (OSCC cells); IC50 normal oral fibroblasts/IC50 SCC-9
  Selective Index (S.I.): 0.95
[1]
  IC50: 1.72 µM
SCC-25 cells
  IC50: 1.5 µM
SCC-4 cells
  IC50: 1.91 µM
[2]; Homo sapiens, read-out: Oral Tumor Cells Mean IC50
  IC50: 1.74 µM
[2]; average selectivity index over SCC-4, SCC-9, SCC-25 vs normal fibroblasts
  Average S.I.: 0.98
SCC9 cells
  Effect of autophagy inhibitor 3-MA on induced cell death: reduced cell death
